Source: ChEMBL document CHEMBL4376834, “Discovery of 4H-Chromen-4-one Derivatives as a New Class of Selective Rho Kinase (ROCK) Inhibitors, which Showed Potent Activity in ex Vivo Diabetic Retinopathy Models” (J Med Chem, 2019)

Assays:
Insulin receptor = Insulin receptor (Homo sapiens, UniProt P06213); test: Inhibition of human recombinant IR (1005 to 1310 residues) using KKSRGDYMTMQIG as substrate after 40 mins by [gamma-33ATP] by radiometric scintillation counting analysis
[1] = target: Ribosomal protein S6 kinase alpha-6 (Homo sapiens, UniProt Q9UK32); test: Inhibition of recombinant full length human Rsk4 using LRRASLG as substrate incubated for 40 mins in presence of [gamma33P]ATP by radiometric scintillation counting analysis
[2] = target: Mitogen-activated protein kinase kinase kinase 5 (Homo sapiens, UniProt Q99683); test: Inhibition of human recombinant ASK1 (649 to 946 residues) using myelin as substrate incubated for 40 mins in presence of [gamma-33ATP] by radiometric scintillation counting analysis
[3] = target: Serine/threonine-protein kinase tousled-like 2 (Homo sapiens, UniProt Q86UE8); test: Inhibition of recombinant human TLK2 (387 to end residues) using casein as substrate incubated for 40 mins in presence of [gamma33P]ATP by radiometric scintillation counting analysis
[4] = target: Protein kinase C gamma type (Homo sapiens, UniProt P05129); test: Inhibition of recombinant full-length human PKCgamma using histone H1 as substrate incubated for 40 mins in presence of [gamma33P]ATP by radiometric scintillation counting analysis
[5] = target: Tyrosine-protein kinase ABL1 (Homo sapiens, UniProt P00519); test: Inhibition of human recombinant ABL1 (27 to end residues) using EAIYAAPFAKKK as substrate incubated for 40 mins in presence of [gamma-33P]ATP by radiometric scintillation counting analysis
[6] = target: Serine/threonine-protein kinase SIK1 (Homo sapiens, UniProt P57059); test: Inhibition of recombinant human SIK (1 to 281 residues) using AMARAASAAALARas substrate incubated for 40 mins in presence of [gamma33P]ATP by radiometric scintillation counting analysis
[7] = target: Protein kinase C zeta type (Homo sapiens, UniProt Q05513); test: Inhibition of recombinant human PKCzeta (2 to end residues) using ERMRPRKRQGSVRR as substrate incubated for 40 mins in presence of [gamma33P]ATP by radiometric scintillation counting analysis
[8] = target: Serine/threonine-protein kinase WNK1 (Homo sapiens, UniProt Q9H4A3); test: Inhibition of recombinant human WNK1 (1 to 491 residues) using myelin basic protein as substrate incubated for 40 mins in presence of [gamma33P]ATP by radiometric scintillation counting analysis
[9] = target: Serine/threonine-protein kinase 10 (Homo sapiens, UniProt O94804); test: Inhibition of recombinant human LOK (1 to 348 residues) using RLGRDKYKTLRQI as substrate after 40 mins in presence of [gamma-33ATP] by radiometric scintillation counting analysis
[10] = target: Proto-oncogene tyrosine-protein kinase Src (Homo sapiens, UniProt P12931); test: Inhibition of recombinant human C-Src using […] as substrate incubated 40 mins in presence of [gamma-33ATP] by radiometric scintillation counting analysis
[11] = target: Calcium/calmodulin-dependent protein kinase type IV (Homo sapiens, UniProt Q16566); test: Inhibition of recombinant full length human CaMK4 using calmodulin as substrate incubated for 40 mins in presence of [gamma-33ATP] by radiometric scintillation counting analysis
[12] = target: Serine/threonine-protein kinase haspin (Homo sapiens, UniProt Q8TF76); test: Inhibition of human recombinant Haspin (471 to end residues) using RARTLSFAEPG as substrate after 40 mins by [gamma-33ATP] radiometric assay
[13] = target: Serine/threonine-protein kinase TAO2 (Homo sapiens, UniProt Q9UL54); test: Inhibition of recombinant human TAO2 (1 to 320 residues) using myelin basic protein as substrate incubated for 40 mins in presence of [gamma33P]ATP by radiometric scintillation counting analysis
[14] = target: Serine/threonine-protein kinase ICK (Homo sapiens, UniProt Q9UPZ9); test: Inhibition of human recombinant ICK (1 to 312 residues) using RRRFRPASPLRGP as substrate after 40 mins by [gamma-33ATP] by radiometric scintillation counting analysis
[15] = target: Mitogen-activated protein kinase 14 (Homo sapiens, UniProt Q16539); test: Inhibition of recombinant human full length SAPK2a using myelin basic protein as substrate incubated for 40 mins in presence of [gamma33P]ATP by radiometric scintillation counting analysis
[16] = target: Mitogen-activated protein kinase 1 (Homo sapiens, UniProt P28482); test: Inhibition of recombinant full length human MAPK1 using myelin basic protein as substrate incubated for 40 mins in presence of [gamma-33ATP by radiometric scintillation counting analysis
Ephrin type-A receptor 8 = Ephrin type-A receptor 8 (Homo sapiens, UniProt P29322); test: Inhibition of recombinant human EPhA8 (615 to 911 residues) at 10 uM using KTFCGTPEYLAPE as substrate incubated for 40 mins in presence of [gamma-33PATP] by radiometric scintillation counting analysis
[17] = target: Serine/threonine-protein kinase WNK2 (Homo sapiens, UniProt Q9Y3S1); test: Inhibition of recombinant human WNK2 (166 to 489 residues) using myelin basic protein as substrate incubated for 40 mins in presence of [gamma33P]ATP by radiometric scintillation counting analysis
[18] = target: Cyclin-dependent kinase 5/CDK5 activator 1 (Homo sapiens, UniProt Q00535); test: Inhibition of recombinant full length human CDK5/p35 using histone H1 as substrate incubated for 40 mins in presence of [gamma-33ATP] by radiometric scintillation counting analysis; type: protein-complex assay
[19] = target: 3-phosphoinositide-dependent protein kinase 1 (Homo sapiens, UniProt O15530); test: Inhibition of recombinant human PDK1 (52 to end residues) using KTFCGTPEYLAPE as substrate incubated for 40 mins in presence of [gamma33P]ATP by radiometric scintillation counting analysis
[20] = target: Cyclin-dependent kinase 2/cyclin E1 (Homo sapiens, UniProt P24941); test: Inhibition of recombinant full length human CDK2/CyclinE using Histone H1 as substrate incubated for 40 mins in presence of [gamma-33ATP] by radiometric scintillation counting analysis; type: protein-complex assay
[21] = target: Macrophage-stimulating protein receptor (Homo sapiens, UniProt Q04912); test: Inhibition of recombinant human Ron (983 to end residues) using GGMEDIYFEFMGGKKK as substrate incubated for 40 mins in presence of [gamma33P]ATP by radiometric scintillation counting analysis
[22] = target: Mitogen-activated protein kinase kinase kinase kinase 3 (Homo sapiens, UniProt Q8IVH8); test: Inhibition of recombinant human MAP4K3 (1 to 291 residues) using RLGRDKYKTLRQI as substrate incubated for 40 mins in presence of [gamma-33ATP by radiometric scintillation counting analysis
[23] = target: Serine/threonine-protein kinase 32A (Homo sapiens, UniProt Q8WU08); test: Inhibition of recombinant human full length STK32A using casein as substrate incubated for 40 mins in presence of [gamma33P]ATP by radiometric scintillation counting analysis
Focal adhesion kinase 1 = Focal adhesion kinase 1 (Homo sapiens, UniProt Q05397); test: Inhibition of recombinant human FAK (411 to 686 residues) using EEEEYEEEEEEYY as substrate after 40 mins in presence of [gamma-33ATP] by radiometric scintillation counting analysis

Measured: IC50

Focal adhesion kinase 1, sequence (Q05397 whole entry, the tested form may be a part): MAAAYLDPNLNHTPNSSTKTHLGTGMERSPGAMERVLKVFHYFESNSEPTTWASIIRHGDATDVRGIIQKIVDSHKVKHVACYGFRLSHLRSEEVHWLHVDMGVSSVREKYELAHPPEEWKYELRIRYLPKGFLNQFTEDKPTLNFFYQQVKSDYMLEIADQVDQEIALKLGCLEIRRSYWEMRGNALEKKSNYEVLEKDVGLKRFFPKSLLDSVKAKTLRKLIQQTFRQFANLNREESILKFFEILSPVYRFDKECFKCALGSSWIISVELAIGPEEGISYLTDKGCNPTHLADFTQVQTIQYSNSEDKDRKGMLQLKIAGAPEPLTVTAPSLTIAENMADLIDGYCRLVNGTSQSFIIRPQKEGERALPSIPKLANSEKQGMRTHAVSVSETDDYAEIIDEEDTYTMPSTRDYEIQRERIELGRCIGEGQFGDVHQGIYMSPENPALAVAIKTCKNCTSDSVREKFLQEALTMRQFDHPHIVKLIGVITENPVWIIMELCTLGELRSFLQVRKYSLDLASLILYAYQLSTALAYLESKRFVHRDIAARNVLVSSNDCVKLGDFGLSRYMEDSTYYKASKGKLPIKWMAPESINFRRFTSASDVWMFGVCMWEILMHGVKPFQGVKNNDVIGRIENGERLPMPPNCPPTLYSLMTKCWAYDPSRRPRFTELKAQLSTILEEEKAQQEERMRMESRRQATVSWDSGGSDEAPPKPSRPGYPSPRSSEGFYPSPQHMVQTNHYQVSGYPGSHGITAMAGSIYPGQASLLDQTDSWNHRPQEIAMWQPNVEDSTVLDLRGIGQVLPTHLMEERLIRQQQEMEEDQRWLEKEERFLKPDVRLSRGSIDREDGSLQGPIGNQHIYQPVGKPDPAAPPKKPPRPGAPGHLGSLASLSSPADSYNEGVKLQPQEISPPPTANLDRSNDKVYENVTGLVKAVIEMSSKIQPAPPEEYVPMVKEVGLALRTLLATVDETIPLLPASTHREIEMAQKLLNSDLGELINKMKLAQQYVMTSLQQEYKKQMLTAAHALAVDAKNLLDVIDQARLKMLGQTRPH
Serine/threonine-protein kinase 10, sequence (O94804 whole entry, the tested form may be a part): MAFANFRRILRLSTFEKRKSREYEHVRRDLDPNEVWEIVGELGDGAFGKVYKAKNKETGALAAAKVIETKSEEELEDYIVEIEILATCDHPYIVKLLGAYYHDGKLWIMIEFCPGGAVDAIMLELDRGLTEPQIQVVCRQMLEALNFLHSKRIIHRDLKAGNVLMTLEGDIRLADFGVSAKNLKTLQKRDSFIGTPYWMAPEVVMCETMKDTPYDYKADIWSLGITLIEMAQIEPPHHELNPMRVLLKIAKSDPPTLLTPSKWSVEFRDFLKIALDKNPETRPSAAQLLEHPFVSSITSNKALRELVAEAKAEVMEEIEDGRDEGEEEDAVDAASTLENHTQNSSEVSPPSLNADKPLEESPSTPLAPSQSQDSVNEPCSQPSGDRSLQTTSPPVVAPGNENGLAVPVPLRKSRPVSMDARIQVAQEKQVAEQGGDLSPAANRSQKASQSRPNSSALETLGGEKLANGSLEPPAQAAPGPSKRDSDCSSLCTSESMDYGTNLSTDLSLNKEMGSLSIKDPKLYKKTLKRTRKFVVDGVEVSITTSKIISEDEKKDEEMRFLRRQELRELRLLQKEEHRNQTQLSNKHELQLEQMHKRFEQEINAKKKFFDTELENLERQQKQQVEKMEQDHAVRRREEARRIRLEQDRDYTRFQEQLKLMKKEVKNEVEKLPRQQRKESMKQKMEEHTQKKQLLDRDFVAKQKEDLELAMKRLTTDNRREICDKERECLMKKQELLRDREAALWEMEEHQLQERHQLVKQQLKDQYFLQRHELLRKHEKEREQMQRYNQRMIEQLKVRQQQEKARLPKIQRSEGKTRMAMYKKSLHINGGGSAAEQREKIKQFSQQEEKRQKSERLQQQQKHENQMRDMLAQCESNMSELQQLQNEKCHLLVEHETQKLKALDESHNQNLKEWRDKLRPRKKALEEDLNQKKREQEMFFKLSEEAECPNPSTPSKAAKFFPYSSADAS
Protein kinase C zeta type, sequence (Q05513 whole entry, the tested form may be a part): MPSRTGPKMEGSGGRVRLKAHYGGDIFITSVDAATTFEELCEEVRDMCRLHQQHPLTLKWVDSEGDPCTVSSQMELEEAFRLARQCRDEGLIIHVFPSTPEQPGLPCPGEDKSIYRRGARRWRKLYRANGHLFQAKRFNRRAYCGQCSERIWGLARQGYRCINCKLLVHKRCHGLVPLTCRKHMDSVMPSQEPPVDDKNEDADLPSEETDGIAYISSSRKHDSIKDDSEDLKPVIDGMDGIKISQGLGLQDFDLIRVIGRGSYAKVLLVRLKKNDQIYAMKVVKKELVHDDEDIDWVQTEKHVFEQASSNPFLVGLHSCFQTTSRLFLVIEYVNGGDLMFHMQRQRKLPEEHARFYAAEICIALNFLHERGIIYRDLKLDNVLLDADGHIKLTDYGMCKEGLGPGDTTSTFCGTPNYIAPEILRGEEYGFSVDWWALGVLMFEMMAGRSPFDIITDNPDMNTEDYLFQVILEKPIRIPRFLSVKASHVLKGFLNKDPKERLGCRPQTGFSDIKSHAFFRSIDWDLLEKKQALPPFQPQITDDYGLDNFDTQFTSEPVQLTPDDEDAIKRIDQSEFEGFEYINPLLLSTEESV
Serine/threonine-protein kinase tousled-like 2, sequence (Q86UE8 whole entry): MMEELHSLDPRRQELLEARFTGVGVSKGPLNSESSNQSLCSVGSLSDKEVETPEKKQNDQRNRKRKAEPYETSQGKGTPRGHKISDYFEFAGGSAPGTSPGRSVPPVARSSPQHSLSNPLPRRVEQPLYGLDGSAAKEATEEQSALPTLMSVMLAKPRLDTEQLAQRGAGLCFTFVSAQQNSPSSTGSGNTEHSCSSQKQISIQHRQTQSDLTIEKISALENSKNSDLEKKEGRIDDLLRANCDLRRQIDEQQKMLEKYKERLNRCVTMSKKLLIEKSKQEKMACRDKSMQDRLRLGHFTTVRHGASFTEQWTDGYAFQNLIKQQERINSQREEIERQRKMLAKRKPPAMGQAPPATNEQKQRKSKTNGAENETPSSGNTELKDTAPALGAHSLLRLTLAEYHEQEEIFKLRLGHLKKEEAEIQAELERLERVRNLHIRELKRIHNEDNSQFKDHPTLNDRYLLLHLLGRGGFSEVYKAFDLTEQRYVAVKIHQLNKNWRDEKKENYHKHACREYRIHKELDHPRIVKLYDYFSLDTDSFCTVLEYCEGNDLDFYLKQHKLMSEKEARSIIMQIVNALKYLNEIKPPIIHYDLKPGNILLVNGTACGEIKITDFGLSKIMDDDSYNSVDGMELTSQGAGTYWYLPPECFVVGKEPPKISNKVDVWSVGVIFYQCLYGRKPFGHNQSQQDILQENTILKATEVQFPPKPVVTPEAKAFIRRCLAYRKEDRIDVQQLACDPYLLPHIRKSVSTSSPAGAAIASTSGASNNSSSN
Serine/threonine-protein kinase 32A, sequence (Q8WU08 whole entry, the tested form may be a part): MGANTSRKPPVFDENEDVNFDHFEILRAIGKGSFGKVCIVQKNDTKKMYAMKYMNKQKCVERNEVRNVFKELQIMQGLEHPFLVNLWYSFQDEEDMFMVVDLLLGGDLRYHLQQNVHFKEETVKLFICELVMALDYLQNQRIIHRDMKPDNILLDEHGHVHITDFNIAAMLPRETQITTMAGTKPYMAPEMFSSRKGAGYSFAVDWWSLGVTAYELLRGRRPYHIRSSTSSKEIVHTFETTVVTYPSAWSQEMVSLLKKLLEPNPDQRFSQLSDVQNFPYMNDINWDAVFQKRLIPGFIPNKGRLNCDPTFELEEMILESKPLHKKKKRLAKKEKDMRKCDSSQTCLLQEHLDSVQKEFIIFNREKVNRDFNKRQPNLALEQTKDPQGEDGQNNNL
Serine/threonine-protein kinase TAO2, sequence (Q9UL54 whole entry, the tested form may be a part): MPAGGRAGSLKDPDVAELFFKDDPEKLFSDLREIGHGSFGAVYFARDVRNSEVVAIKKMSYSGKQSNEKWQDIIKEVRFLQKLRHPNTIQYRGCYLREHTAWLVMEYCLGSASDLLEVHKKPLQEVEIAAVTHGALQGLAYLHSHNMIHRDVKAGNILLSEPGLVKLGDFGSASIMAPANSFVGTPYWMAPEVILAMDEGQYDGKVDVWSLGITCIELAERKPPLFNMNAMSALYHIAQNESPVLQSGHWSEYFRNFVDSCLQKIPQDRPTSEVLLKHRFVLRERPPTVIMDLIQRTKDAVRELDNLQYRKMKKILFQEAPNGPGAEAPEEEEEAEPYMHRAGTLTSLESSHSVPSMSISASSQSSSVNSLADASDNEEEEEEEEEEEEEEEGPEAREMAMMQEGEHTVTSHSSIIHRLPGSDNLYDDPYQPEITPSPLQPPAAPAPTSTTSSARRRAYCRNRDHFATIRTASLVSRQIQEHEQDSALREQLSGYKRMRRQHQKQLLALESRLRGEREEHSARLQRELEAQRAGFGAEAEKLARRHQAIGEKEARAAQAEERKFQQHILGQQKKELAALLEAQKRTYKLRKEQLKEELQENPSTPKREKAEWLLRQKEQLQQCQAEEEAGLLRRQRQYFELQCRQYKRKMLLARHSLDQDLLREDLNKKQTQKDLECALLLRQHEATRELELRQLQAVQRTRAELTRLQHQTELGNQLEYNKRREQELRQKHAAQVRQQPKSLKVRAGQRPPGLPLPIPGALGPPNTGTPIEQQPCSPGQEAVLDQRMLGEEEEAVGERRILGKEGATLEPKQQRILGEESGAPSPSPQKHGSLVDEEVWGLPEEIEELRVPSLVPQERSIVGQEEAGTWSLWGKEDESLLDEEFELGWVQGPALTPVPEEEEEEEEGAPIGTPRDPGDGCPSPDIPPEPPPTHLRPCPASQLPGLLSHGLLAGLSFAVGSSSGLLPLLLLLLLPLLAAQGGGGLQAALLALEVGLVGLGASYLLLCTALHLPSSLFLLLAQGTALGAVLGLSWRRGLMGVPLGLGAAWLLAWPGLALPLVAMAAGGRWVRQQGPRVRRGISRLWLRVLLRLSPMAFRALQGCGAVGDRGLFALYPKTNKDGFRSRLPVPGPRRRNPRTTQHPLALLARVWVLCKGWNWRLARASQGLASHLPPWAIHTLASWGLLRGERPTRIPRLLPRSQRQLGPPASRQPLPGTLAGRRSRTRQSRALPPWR

CN(C)c1ccc(C(=O)Nc2cccc(NC(=O)COc3ccc4c(=O)ccoc4c3)c2)cc1
> 10 µM: all assays above
